{"source": "patent US8617567B2", "about": "“Fungus polyose composition with immunity enhancing effect and application thereof” (priority 2009, dated 2013)", "tested_on": "S180 cancer bearing mice", "conditions": "S180 NIH mice, 100 mg/kg intraperitoneal, 2 times per week, 11 days", "method": "85 healthy NIH mice, unisexual, were selected. […] The other 55 mice were used for solid tumor test.\nAt the beginning of the experiment, 20 mice with ascites were selected and sacrificed by pulling the cervical vertebrae on a sterilized bench, then the abdomens were sterilized with iodine tinctur, 75% alcohol q-tips in turn. The ascites were collected with 3 ml asepsis disposable syringe and put in asepsis dry conical flask and stored on the ice. […] It should be noted that the ascites collected were a milk-yellow or milk-white fluid, and the ascites with a larger quantity of RBC should be discarded. After the ascites were diluted 100 times, the cell density was measured to about 2×10^7/ml by the method of Trypan Blue count. The ascites were diluted with saline. The diluted ascites were subcutaneously injected, at a dosage of 0.2 ml, into the right armpit of each mouse.\nAfter all qualified 55 mice were injected, they were randomly divided into 5 groups: the blank control group, the compound fungus polyose low-, medium-, and high-dosage groups, and the positive cyclophosphamide control group, respectively. 11 mice were in each group. […] After 11 days of administration, all mice were sacrificed and their body weights, tumor weights, thymic weights, and spleen weights were measured. After the end of the experiment, statistical treatment of data was carried out to compare the difference among the groups. Thymus (spleen) index=Thymus (spleen) weight/Body weight×10 g Body Weight Changes=Body weight after administration−Body weight before administration Inhibition ratio %=(Tumor weight in blank group−Tumor weight in treatment group)/Tumor weight in blank group×100% 4.2 Mice Immune Function Test 4.2.1 Mice Carbon Clearance Test", "data": [{"smiles": "O=P1(N(CCCl)CCCl)NCCCO1", "note": "(centres unmarked) [Cyclophosphamide]", "values": [{"measurement": "Condition of thymus and spleen", "result": "obvious atrophy"}, {"measurement": "Spleen index", "result": "0.0322 ± 0.0190", "unit": "g/10 g"}, {"measurement": "Thymus index", "result": "0.0117 ± 0.0041", "unit": "g/10 g"}, {"measurement": "Tumor weight", "result": "0.0502 ± 0.0253", "unit": "g"}, {"measurement": "Anti-tumor ratio", "setting": "vs blank control", "result": 95.9, "unit": "%"}]}]}
